Test results taken from patent publication US8563564B2, “Composition for skin external application containing gallocatechin gallate for moisturizing effect on the skin” (priority 2005, dated 2013).

Tests used:
PPAR-α [1] = assay: PPAR-α activation capability, One-Factor-At-A-Time reporter gene (Dual-Luciferase) assay in CV-1 cells; format: cell-based; details: ratio based on the negative control, mean of three tests
From the text: (§1) One of the known methods for determining PPAR activation by observing PPAR activation/inactivation is reporter gene assay (Kliewer et. al., Nature, 1992, 358: 771-774). The reporter gene assay includes cloning a base sequence containing a promoter of interest and reporter genes, and injecting the base sequence into eukaryotic cells to activate transcription and to control the expression of a protein. Herein, protein expression increases as the promoter is activated. The reporter gene used for the first time is CAT (chloramphenicol acetyltransferase) gene. Recently, luciferase gene has been used widely. In the present invention, a Dual-Luciferase Reporter Assay System Kit available from Promega Co. was used. The following test was carried out to determine PPAR-α activation capability. CV-1 cells (ATCC CCL 70), i.e. monkey kidney epithelial cell line, were subcultured in a DMEM medium containing 10% bovine fetal serum treated with charcoal/dextrin. A phenol red-free medium was used to avoid the effect of estrogen upon phenol red. As plasmids, used were plasmids having PPRE (PPARs responsive element) as a promoter, followed by firefly luciferase genes as a reporter, the PPRE being activated by PPAR- (gene-containing PPAR- and ligand-bound PPAR-) bound next to the universal promoter expressed under general culture conditions, and a reference plasmid to which renilla luciferase genes were bound. CV-1 cells were plated on a 24-well microtiter plate at a concentration of 5×10^4 cells per well and cultured for 24 hours. Then, the above three types of plasmid genes were subjected to transient transfection by using a TransFast Kit available from Promega Co. After the cultured product was washed with PBS (phosphate buffered saline) once, the product was treated with a suitable concentration of sample materials, cultured again for 24 hours, and washed with PBS twice. Next, the cells were lysed with PLB (passive lysis buffer, Promega) once, and determined for luciferase activity by using a Dual-Luciferase Reporter Assay System Kit (Promega) in the samples and the controls. In this test, as a positive control, Wy14643 known as the strongest PPAR-α ligand was used. As negative controls, DMSO used to dissolve the samples and non-treated group were used. Each reported value was calculated as a ratio based on the negative control. The results are shown in the following Table 1, wherein each value is the mean value obtained after carrying out the test three times.

PPAR-α [2] = assay: PPAR-α activation capability of GCG/theobromine/quercetin combinations, response surface methodology (central composite design); format: cell-based
From the text: as §1, with “CV-1” for “One of the known methods for determining PPAR activation by observing PPAR activation/inactivation is reporter gene assay (Kliewer et. al., Nature, 1992, 358: 771-774). The reporter gene assay includes cloning a base sequence containing a promoter of interest and reporter genes, and injecting the base sequence into eukaryotic cells to activate transcription and to control the expression of a protein. Herein, protein expression increases as the promoter is activated. The reporter gene used for the first time is CAT (chloramphenicol acetyltransferase) gene. Recently, luciferase gene has been used widely. In the present invention, a Dual-Luciferase Reporter Assay System Kit available from Promega Co. was used. The following test was carried out to determine PPAR-α activation capability. CV-1”, “times. […] When using RSM, it is possible to understand the level of an independent parameter where a response value is optimized, to estimate the effect of an independent parameter upon response parameters via estimation of a functional relationship between each independent parameter and dependent parameter, and to determine optimized experimental conditions. […]” for “times.”

Oc1cc(O)c2c(c1)O[C@H](c1ccc(O)c(O)c1)[C@@H](O)C2 [(+) CA]
PPAR-α Activation (PPAR-α [1]; 10 uM): 1.5
PPAR-α Activation (PPAR-α [1]; 100 uM): 1.4

Oc1cc(O)c2c(c1)O[C@@H](c1ccc(O)c(O)c1)[C@@H](O)C2 [(+) EC]
PPAR-α Activation (PPAR-α [1]; 10 uM): 1.3
PPAR-α Activation (PPAR-α [1]; 100 uM): 1.2

Epigallocatechin gallate [(−) EGCG]
PPAR-α Activation (PPAR-α [1]; 10 uM): 1.0
PPAR-α Activation (PPAR-α [1]; 100 uM): 1.5

O=C(O[C@@H]1Cc2c(O)cc(O)cc2O[C@H]1c1cc(O)c(O)c(O)c1)c1cc(O)c(O)c(O)c1 [(−) GCG, gallocatechin gallate]
fold (PPAR-α activation) (PPAR-α [2]; GCG 100, theobromine 0, quercetin 0): 1.191 fold
PPAR-α Activation (PPAR-α [1]; 10 uM): 1.1
PPAR-α Activation (PPAR-α [1]; 100 uM): 2.3

O=c1c(O)c(-c2cc(O)c(O)c(O)c2)oc2cc(O)cc(O)c12 [Myricetin]
PPAR-α Activation (PPAR-α [1]; 10 uM): 1.7
PPAR-α Activation (PPAR-α [1]; 100 uM): 1.6

Oc1cc(O)c2c(c1)O[C@@H](c1cc(O)c(O)c(O)c1)[C@H](O)C2 [(−) GC]
PPAR-α Activation (PPAR-α [1]; 10 uM): 1.1
PPAR-α Activation (PPAR-α [1]; 100 uM): 1.0

Cn1cnc2c1c(=O)[nH]c(=O)n2C [Theobromine]
fold (PPAR-α activation) (PPAR-α [2]; GCG 0, theobromine 100, quercetin 0): 1.905 fold
PPAR-α Activation (PPAR-α [1]; 10 uM): 2.2
PPAR-α Activation (PPAR-α [1]; 100 uM): 4.5

Oc1cc(O)c2c(c1)O[C@H](c1cc(O)c(O)c(O)c1)[C@H](O)C2 [(−) EGC]
PPAR-α Activation (PPAR-α [1]; 10 uM): 1.3
PPAR-α Activation (PPAR-α [1]; 100 uM): 1.0

Oc1cc(O)c2c(c1)O[C@H](c1ccc(O)c(O)c1)[C@H](O)C2 [(−) EC]
PPAR-α Activation (PPAR-α [1]; 10 uM): 1.2
PPAR-α Activation (PPAR-α [1]; 100 uM): 1.2

Cn1c(=O)c2[nH]cnc2n(C)c1=O [Theophylline]
PPAR-α Activation (PPAR-α [1]; 10 uM): 1.4
PPAR-α Activation (PPAR-α [1]; 100 uM): 1.7

Cn1c(=O)c2c(ncn2C)n(C)c1=O [Caffeine]
PPAR-α Activation (PPAR-α [1]; 10 uM): 1.3
PPAR-α Activation (PPAR-α [1]; 100 uM): 1.6

O=C(O)c1cc(O)c(O)c(O)c1 [Gallic acid]
PPAR-α Activation (PPAR-α [1]; 10 uM): 1.3
PPAR-α Activation (PPAR-α [1]; 100 uM): 1.7

O=C(O)[C@]1(O)C[C@@H](O)[C@@H](O)[C@H](O)C1 [Quinic acid]
PPAR-α Activation (PPAR-α [1]; 10 uM): 1.3
PPAR-α Activation (PPAR-α [1]; 100 uM): 1.7

C[C@@H]1O[C@@H](OC[C@H]2O[C@@H](Oc3c(-c4ccc(O)c(O)c4)oc4cc(O)cc(O)c4c3=O)[C@H](O)[C@@H](O)[C@@H]2O)[C@H](O)[C@H](O)[C@H]1O [Rutin hydrate]
PPAR-α Activation (PPAR-α [1]; 10 uM): 1.6
PPAR-α Activation (PPAR-α [1]; 100 uM): 1.3

Cc1cccc(Nc2cc(Cl)nc(SCC(=O)O)n2)c1C [Positive Control, Wy14643]
PPAR-α Activation (PPAR-α [1]; 0.1 uM): 1.5
PPAR-α Activation (PPAR-α [1]; 1 uM): 2.6
PPAR-α Activation (PPAR-α [1]; 10 uM): 3.8

O=c1c(O)c(-c2ccc(O)cc2)oc2cc(O)cc(O)c12 [Kaempferol]
PPAR-α Activation (PPAR-α [1]; 10 uM): 1.7
PPAR-α Activation (PPAR-α [1]; 100 uM): 1.4

O=C(O[C@@H]1Cc2c(O)cc(O)cc2O[C@H]1c1ccc(O)c(O)c1)c1cc(O)c(O)c(O)c1 [(−) CG]
PPAR-α Activation (PPAR-α [1]; 10 uM): 1.2
PPAR-α Activation (PPAR-α [1]; 100 uM): 1.6

O=c1c(O)c(-c2ccc(O)c(O)c2)oc2cc(O)cc(O)c12 [Quercetin]
fold (PPAR-α activation) (PPAR-α [2]; GCG 0, theobromine 0, quercetin 100): 1.3 fold
PPAR-α Activation (PPAR-α [1]; 10 uM): 1.7
PPAR-α Activation (PPAR-α [1]; 100 uM): 2.3

CCNC(=O)CC[C@H](N)C(=O)O [Theanine]
PPAR-α Activation (PPAR-α [1]; 10 uM): 1.8
PPAR-α Activation (PPAR-α [1]; 100 uM): 1.9

O=C(O[C@@H]1Cc2c(O)cc(O)cc2O[C@@H]1c1ccc(O)c(O)c1)c1cc(O)c(O)c(O)c1 [(−) ECG]
PPAR-α Activation (PPAR-α [1]; 10 uM): 1.1
PPAR-α Activation (PPAR-α [1]; 100 uM): 1.6
